This note sets out measurements from ChEMBL document CHEMBL3046521, “Synthesis and antitumor activity of (4-hydroxyphenyl)[5-substituted alkyl/aryl)-2-thioxo-1,3,4-thiadiazol-3-yl]methanone and [(3,4-disubstituted)-1,3-thiazol-2ylidene]-4-hydroxybenzohydrazide” (2011).

Each structure is given as a SMILES string.

The assay deals with SK-MEL-5. Put plainly: Anticancer activity in Homo sapiens (human) SK-MEL-5 cells assessed as cell growth at 10^-5 M after 48 hr by SRB assay. In kind it is functional. To be noted: SK-MEL-5, 48 h, read-out: Activity. (In general: In SRB staining, fixed cells bind dye roughly in proportion to their protein.)

In the case of `Cc1ccc(-c2cs/c(=N\NC(=O)c3ccc(O)cc3)n2-c2c(C)cccc2C)cc1`, the growth at 10 µM was 5.18%.
